Results: patent US10865388B2, “Method for identifying anti-cancer agents using an in vitro cell culture system that maintains cancer cell stemness” (National Taiwan University, priority 2014, dated 2020)
pIC50: −log10 of the molar value.

How the values were obtained:
Format in all cases: cell-based, human
Nanog = experiment: RT Q-PCR analysis of the stem cell marker Nanog; details: for Nanog expression in CLS1 cells treated with cytokine: IGF-II 10 ng/ml, HGF 10 ng/ml, sCD14 500 ng/ml (FIG. 4f)
Description: The expression level of stemness-related genes and validation of the Affymetrix microarray data for CAF, CLS1/CAF and CLS1 were performed through RT Q-PCR using an ABI Prism 7900 Sequencer (Applied Biosystems).
TATA-box binding protein (TBP) and β-actin were used as internal controls. The expression levels were normalized to TBP and defined as −ΔCT=−[CTtarget−CTTBP]. The relative expression ratio was calculated as the fold change relative to the control (2^−ΔΔCT). The experiments were performed in triplicate.

ALDH activity = experiment: ALDEFLUOR assay (flow cytometry); details: CLS1/CAFs, A549, H1975 and EKVX; IGF-II 100 ng/ml (FIG. 15)
Description: ALDH activity of cells was measured using the ALDEFLUOR assay kit (StemCell Technologies) based on the manufacturer's protocol and a previous report. Ginestier, et al., 2007. After different treatments, the cells were suspended in the ALDEFLUOR assay buffer containing the ALDH substrate BODIPY-aminoacetaldehyde (BAAA, 1 mM per 1×10^6 cells, incubate 30 min at 37° C.). As a negative control, the cell sample was treated with diethylaminobenzaldehyde (DEAB), a specific ALDH inhibitor. Nonviable cells were identified by propidium iodide staining and analysis using the FACSAria instrument (Becton Dickinson).

[1] = tested on: IGF1R-p/IGF1R, AKT-p/AKT and Nanog; experiment: Western blot analysis of IGF1R, AKT and Nanog; details: CLS1, CL141 and CL152; IGF-II 10 or 100 ng/ml, time-dependent (FIG. 5c)
Description: The detailed procedures were performed as described in Zoller, Nat Rev Cancer 11:254-267 (2011). The primary antibodies for p-IGF1R (Y1316, 6113S; 1:1000), p-AKT (D9E; 1:1000), AKT (927L; 1:1000) and Nanog (D73G4; 1:1000) were purchased from Cell Signaling Technology, Inc., and the primary antibody for IGF1R (C-20; 1:1000) was purchased from Santa Cruz. Monoclonal mouse anti-β-actin (Chemicon, Millipore; 1:5000) was used as a loading control. The membranes were then washed three times with TBST, followed by incubation with horseradish peroxidase (HRP)-conjugated secondary antibody (1:5,000) in TBST/2% skim milk. Bound antibody was detected using the Enhanced Chemiluminescence System (Santa Cruz, Calif.). Chemiluminescent signals were captured using the Fujifilm LAS 3000 system (Fujifilm, Tokyo, Japan). All experiments were performed at least three times in duplicate.

CLS1 cells = experiment: Ultra-low sphere-forming assay, CLS1; details: IGF-II 10 and 100 ng/ml, 21 days (FIG. 5b)
Description: An ultra-low sphere-forming assay was performed as previously described (Dontu, et al., 2003) and modified as the following procedures. A single-cell suspension of lung CSCs in MCDB201 serum-free medium (Invitrogen) supplemented with 20 ng/ml EGF (Sigma) and 20 ng/ml bFGF (Invitrogen) was seeded in ultra-low adherent 24-well plates (Corning, Corning, N.Y., USA; 200 viable cells/well). The medium was supplemented with fresh growth factors twice weekly. After 3 weeks, the spheres were examined under the Axiovert 200 microscope.

[2] = tested on: lung cancer cells co-cultured with CAFs; experiment: Image-based high-content analysis of Nanog-positive cells per colony
Description: Lung CSCs or cancer cells (200 cells/well) were added to 96-well plates pre-seeded with CAFs (2000 cells/well) and were allowed to attach to the plates overnight. After different treatments, cells were processed following the immunofluorescence protocol with the Nanog (ReproCELL) (1:300) primary antibody (as the cancer stem-cell marker) and the mouse anti-human CD90 FITC-conjugated (5E10, BD Pharmingen) antibody (as the CAF marker) overnight at 4° C. Next, the primary antibodies were incubated with the TRITC-conjugated secondary antibody [goat anti-rabbit IgG (H+L) Conjugate, Invitrogen] for 2 h at room temperature. The nuclei were counterstained with the Hoechst 33342 dye (Invitrogen). To determine the background fluorescence level of the secondary antibody, each plate included control wells containing only the secondary antibody (stained with the Hoechst 33342 dye). Images of the stained cells were acquired using the automated fluorescence microscopy platform.
Image acquisition and analysis were performed as follows. Stained cells were imaged using the high-content analysis platform with a 4× objective. […] The images were analyzed using the MetaXpress® software (Molecular Devices). […] Finally, the TRITC-stained cell count and the total cell count were determined. The stemness of each colony was calculated as the ratio of Nanog-positive (TRITC-stained) cells to total cells. […]

CLS1 = experiment: Drug resistance assay (MTT), CLS1; details: 48 h drug treatment, CLS1 after CAF removal
Description: (§1) An MTT [3-(4,5-dimethylthiazolyl-2)-2,5-diphenyltetrazolium bromide] (Sigma) assay was performed to determine cell proliferation. Briefly, CLS1/CAF and CLS1 cells were added to 96-well plates at a density of 5×10^3 cells/well. After incubating for 24 h, the cells were serum-starved overnight. The cells were then treated with different concentrations (0-50 μM) of the drugs docetaxel, cisplatin, etoposide and vinorelbine for 48 h. After 48 h, the culture medium containing 0.5 mg/ml MTT was added to each well. After 1.5 h of incubation, the medium was removed, and DMSO was added to the plates. The color intensity of the solubilized formazan was measured at 570 nm in an ELISA plate reader (Vector3; Perkin-Elmer, USA).

CLS1/CAF = experiment: Drug resistance assay (MTT), CLS1/CAF; details: 48 h drug treatment, CLS1 co-cultured with CAFs
Description: as §1

“IGF-II: growth factor secreted by CAFs, added as cytokine to cancer cells” was tested, and the Nanog expression (Nanog; CLS1, A549, H1975 and H460 treated with IGF-II 100 ng/ml (FIG. 5a)) was “increased”, the “Nanog expression in CLS1 cells treated with cytokine” value (Nanog) was “induced” and the ALDEFLUOR-positive ratio (ALDH activity) was “increased”. The “IGF1R and Akt phosphorylation and downstream Nanog expression” value [1] was “induced”, the “sphere numbers and size” value (CLS1 cells) was “enlarged” and the “number of Nanog-positive cells per colony” value ([2]; IGF-II 10 and 100 ng/ml, CLS1 cells (FIG. 14b)) was “facilitated”.

With `CCC1=C[C@@H]2CN(C1)Cc1c([nH]c3ccccc13)[C@@](C(=O)OC)(c1cc3c(cc1OC)N(C)[C@H]1[C@@](O)(C(=O)OC)[C@H](OC(C)=O)[C@]4(CC)C=CCN5CC[C@]31[C@@H]54)C2` [Vinorelbine ditartrate] the pIC50 (CLS1; Homo sapiens) was 7.55 and the pIC50 (CLS1/CAF; Homo sapiens) was 6.11.

`COc1cc([C@@H]2c3cc4c(cc3[C@H](O)[C@H]3COC(=O)[C@@H]23)OCO4)cc(OC)c1OC` [PPP, picropodophyllin] was tested, and the “Nanog-positive cells in each colony” value ([2]; A549, EKVX, CLS1, CL141 and CL152 co-cultured with CAFs, antibody 1 μg/ml, inhibitors 1 μM/ml (FIG. 6a)) was “significantly inhibited”.

With “HGF: hepatocyte growth factor, cytokine added to CLS1 cells” the “Nanog expression in CLS1 cells treated with cytokine” value (Nanog) was “induced”.

Compound `COc1cc([C@@H]2c3cc4c(cc3[C@@H](O[C@@H]3O[C@@H]5CO[C@@H](C)O[C@H]5[C@H](O)[C@H]3O)[C@H]3COC(=O)[C@H]23)OCO4)cc(OC)c1O` [Etoposide (VP-16), Etoposide] has a pIC50 (CLS1; Homo sapiens) of 5.97 and a pIC50 (CLS1/CAF; Homo sapiens) of 3.96.

With `CC(=O)O[C@@]12CO[C@@H]1C[C@H](O)[C@@]1(C)C(=O)[C@H](O)C3=C(C)[C@@H](OC(=O)[C@H](O)[C@@H](NC(=O)OC(C)(C)C)c4ccccc4)C[C@@](O)([C@@H](OC(=O)c4ccccc4)[C@H]21)C3(C)C` [Docetaxel] the pIC50 (CLS1; Homo sapiens) was 8.38 and the pIC50 (CLS1/CAF; Homo sapiens) was 7.26.

`N.N.[Cl][Pt][Cl]` [Cisplatin] was tested, and the pIC50 (CLS1) was 6.70 and the pIC50 (CLS1/CAF) was 6.51.
